Measurements taken from patent US7585460B2, “Method for inhibiting the biological acidification of water in contact with materials containing sulfur” (ENI S.p.A., priority 2003, dated 2009).

Tests used:
Thiobacilli (consortium) = assay: Acidification of TM medium with sulfur powder inoculated with a culture of Thiobacilli (Example 3); assay type: cell-based, Thiobacillus; details: 33 g/l NaCl
Method: 25 ml of TM medium (regulated to pH 6 with HCl 0.1 N and sterilized in an autoclave with vapour for 20 minutes at 121° C.) were introduced into 100 ml flasks. 0.1 g (0.4%) of elemental sulfur (sulfur powder 98%-UNI sieved:0.05) were added to the TM culture medium. 2 g of small sulfur fragments taken from a sulfur deposit in Canada exposed for years to the outside environment and consequently definitely contaminated by sulfo-oxidizing bacteria, were added to the medium as a source of micro-organisms. The cultures were incubated under bland orbital stirring (100 rpm) for 25 days. During the incubation, the cultures were controlled daily for the indirect quantitative evaluation of the cellular development by registering the optical density value (at 600 nm) and to measure the lowering of the pH value.
At the end of this period, the culture broths obtained, with a cellular density higher than 10^7 cells/ml and a lowering of the pH of the medium to a value of 1.5, were filtered on common filter paper to eliminate the particles of excess sulfur and to be preserved, in 2 ml aliquots, in polypropylene phials, in a refrigerator at −70° C., as standardized inoculum.
The two consortia: that produced starting from collection strains and the one prepared starting from sulfur samples removed from actual deposits, were compared with respect to the growth curves and acidification capacity. […] It was then decided to use, for the whole following experiment, the trigger culture consisting of the wild type strains selected from the natural environment. This culture is hereafter called “consortium”.
25 ml of TM—in demineralized water—at pH 6, inoculated with 0.4% (vol/vol) of the bacterial suspension (consortium), with the addition of 0.1 g of sulfur powder, were introduced into 100 ml flasks. 33 g/l of NaCl were added to the medium to evaluate the inhibiting effect of the salt on the growth of the Thiobacilli and the acidification of the solution. Control cultures without NaCl were incubated parallelly.
The culture broths were controlled for pH and absorbance variations.

Thiobacilli = assay: Acidification of rainwater in contact with solid sulfur test samples colonized by Thiobacilli (Example 5); assay type: cell-based, Thiobacillus; details: 33 g/l NaCl
Method: The following experimental systems were prepared, using test samples of solid sulfur (discoid tables each of about 13 g). • System A: Containing 2 test samples not colonized by microbial cells, placed on the bottom of the container, completely immersed in rainwater (sterilized at a low temperature by micro-filtration); • System A1: Containing two non-colonized test samples, only dampened—by means of a sprayer—with rainwater sterilized by micro-filtration. • System B: Containing 2 colonized test samples (previously immersed in a suspension of 10^8 cells/ml of Thiobacilli and left to dry in the air), placed on the bottom of the container, entirely immersed in micro-filtered rainwater; • System B1: Containing two colonized test samples as per the previous system, only dampened with rainwater sterilized by micro-filtration; • System C: Containing 2 colonized test samples entirely immersed in micro-filtered rainwater, in which 33 g/l of Nacl are dissolved; • System C1: containing 2 colonized test samples only dampened with rainwater sterilized by micro-filtration and containing 33 g/l of NaCl.
The pH variation measurements during 48 days of experimentation are represented in Table 4.

[Cl-].[Na+] [NaCl, Sodium Chloride]
0.014: Optical density (Thiobacilli (consortium); day 16) | Optical density (Thiobacilli (consortium); day 26)
0.025: Optical density (Thiobacilli (consortium); day 1)
6.0: pH (Thiobacilli (consortium); day 0) | pH (Thiobacilli (consortium); day 1) | pH (Thiobacilli (consortium); day 3) | pH values in the systems (Thiobacilli; System C1: colonized samples only dampened with rainwater, day 0) | pH values in the systems (Thiobacilli; System C: colonized samples immersed in rainwater, day 0) | pH values in the systems (Thiobacilli; System C: colonized samples immersed in rainwater, day 3) | pH values in the systems (Thiobacilli; System C: colonized samples immersed in rainwater, day 5)
0.012: Optical density (Thiobacilli (consortium); day 19)
5.8: pH (Thiobacilli (consortium); day 5) | pH (Thiobacilli (consortium); day 9) | pH (Thiobacilli (consortium); day 12) | pH (Thiobacilli (consortium); day 14) | pH (Thiobacilli (consortium); day 16) | pH (Thiobacilli (consortium); day 19) | pH (Thiobacilli (consortium); day 21) | pH (Thiobacilli (consortium); day 24) | pH (Thiobacilli (consortium); day 26) | pH values in the systems (Thiobacilli; System C1: colonized samples only dampened with rainwater, day 3) | pH values in the systems (Thiobacilli; System C1: colonized samples only dampened with rainwater, day 5) | pH values in the systems (Thiobacilli; System C1: colonized samples only dampened with rainwater, day 7) | pH values in the systems (Thiobacilli; System C1: colonized samples only dampened with rainwater, day 10) | pH values in the systems (Thiobacilli; System C1: colonized samples only dampened with rainwater, day 12) | pH values in the systems (Thiobacilli; System C1: colonized samples only dampened with rainwater, day 15) | pH values in the systems (Thiobacilli; System C1: colonized samples only dampened with rainwater, day 21) | pH values in the systems (Thiobacilli; System C1: colonized samples only dampened with rainwater, day 29) | pH values in the systems (Thiobacilli; System C1: colonized samples only dampened with rainwater, day 32) | pH values in the systems (Thiobacilli; System C1: colonized samples only dampened with rainwater, day 35) | pH values in the systems (Thiobacilli; System C1: colonized samples only dampened with rainwater, day 38) | pH values in the systems (Thiobacilli; System C1: colonized samples only dampened with rainwater, day 42) | pH values in the systems (Thiobacilli; System C1: colonized samples only dampened with rainwater, day 46) | pH values in the systems (Thiobacilli; System C1: colonized samples only dampened with rainwater, day 48) | pH values in the systems (Thiobacilli; System C: colonized samples immersed in rainwater, day 7) | pH values in the systems (Thiobacilli; System C: colonized samples immersed in rainwater, day 10) | pH values in the systems (Thiobacilli; System C: colonized samples immersed in rainwater, day 12) | pH values in the systems (Thiobacilli; System C: colonized samples immersed in rainwater, day 15) | pH values in the systems (Thiobacilli; System C: colonized samples immersed in rainwater, day 21) | pH values in the systems (Thiobacilli; System C: colonized samples immersed in rainwater, day 29) | pH values in the systems (Thiobacilli; System C: colonized samples immersed in rainwater, day 32) | pH values in the systems (Thiobacilli; System C: colonized samples immersed in rainwater, day 35) | pH values in the systems (Thiobacilli; System C: colonized samples immersed in rainwater, day 38) | pH values in the systems (Thiobacilli; System C: colonized samples immersed in rainwater, day 42) | pH values in the systems (Thiobacilli; System C: colonized samples immersed in rainwater, day 46) | pH values in the systems (Thiobacilli; System C: colonized samples immersed in rainwater, day 48)
0.010: Optical density (Thiobacilli (consortium); day 21) | Optical density (Thiobacilli (consortium); day 24)
0.021: Optical density (Thiobacilli (consortium); day 0) | Optical density (Thiobacilli (consortium); day 9) | Optical density (Thiobacilli (consortium); day 12) | Optical density (Thiobacilli (consortium); day 14)
0.028: Optical density (Thiobacilli (consortium); day 5)
0.024: Optical density (Thiobacilli (consortium); day 3)
